Source: publication PMC11940195, “Characterization of a GH43 Bifunctional Glycosidase from Endophytic Chaetomium globosum and Its Potential Application in the Biotransformation of Ginsenosides” (BioTech, 2025)

Tested on: T1, Xyaf313
T1 construct: gene of 1380 bp, 460 aa, about 50 kDa theoretical; C-terminal His6; codon-optimized, pPIC9K, secreted from Pichia pastoris GS115, Ni-NTA
Test: p-nitrophenol release, Michaelis-Menten nonlinear fit
Format: biochemical, Chaetomium globosum
Settings: pH 7, 50 °C (optimal conditions); substrate 0.5-5.0 mM
Source text: p-nitrophenol release, Michaelis-Menten nonlinear fit on Xyaf313

SMILES	Km [mM]
O=[N+]([O-])c1ccc(O[C@@H]2O[C@@H](CO)[C@H](O)[C@H]2O)cc1 [4-nitrophenyl α-L-arabinofuranoside]	5.65 ± 1.67
O=[N+]([O-])c1ccc(O[C@@H]2OC[C@@H](O)[C@H](O)[C@H]2O)cc1 [ρ-nitrophenyl β-D-xylopyranoside]	1.77 ± 1.27
